From patent US4866076A, “Biologically active compounds” (Smith Kline & French Laboratories Limited, priority 1987, dated 1989)
Where a name gives a salt, the structure may show the parent alone.

Target: T1, TXA2 receptors (Homo sapiens, UniProt P21731)
T1 construct: from tissue; host or cells: human platelets
T1 sequence (P21731 1-343): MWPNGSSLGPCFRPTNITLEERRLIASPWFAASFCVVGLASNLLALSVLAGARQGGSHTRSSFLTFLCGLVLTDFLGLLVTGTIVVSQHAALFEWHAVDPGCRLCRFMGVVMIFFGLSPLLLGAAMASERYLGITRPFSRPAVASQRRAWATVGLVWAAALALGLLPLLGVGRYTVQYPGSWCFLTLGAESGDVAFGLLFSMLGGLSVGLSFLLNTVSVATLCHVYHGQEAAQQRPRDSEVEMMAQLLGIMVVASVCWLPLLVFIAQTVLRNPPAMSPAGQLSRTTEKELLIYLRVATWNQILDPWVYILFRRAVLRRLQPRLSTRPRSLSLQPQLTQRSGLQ
Assay: human platelet binding assay ([^125 I]PTA-OH receptor ligand)
Settings: 50% inhibition of specific [^125 I]PTA-OH binding; human platelets
Description: As indicated above, compounds of the formula (I) have biological activity that is indicative of an ability to antagonise TXA2 receptors. […] The platelet binding assay used was essentially the method described by Mais et al, J. Pharm. Exp. Ther., 1985, 235(3), 729-734 where [^125 I]PTA-OH was used as the receptor ligand. The IC50 values represent the concentration which produces a 50% inhibition of specific [^125 I]PTA-OH binding. The compounds of Examples 1 to 6 were tested in the human platelet binding assays as described above and the results obtained are shown in the Table below: […]

With `O=C(O)c1ccccc1CN1CCc2ccc(S(=O)(=O)Nc3cccc(Cl)c3)cc2C1` [Example 1, 2-[[7-(3-chlorophenylsulphamoyl)-1,2,3,4-tetrahydroisoquinolin-2-yl]methyl]benzoic acid] the IC50 was 2600 nM.

`O=C(O)c1ccnc(CN2CCc3ccc(S(=O)(=O)Nc4cccc(Cl)c4)cc3C2)c1` [Example 6, 2-[[7-(3-chlorophenylsulphamoyl)-1,2,3,4-tetrahydroisoquinolin-2-yl]methyl]isonicotinic acid hydrochloride] showed an IC50 of 2900 nM.

In the case of `O=C(O)c1cccc(CN2CCc3ccc(S(=O)(=O)Nc4cccc(Cl)c4)cc3C2)c1` [Example 2, 3-[[7-(3-Chlorophenylsulphamoyl)-1,2,3,4-tetrahydroisoquinolin-2-yl]methyl]benzoic acid], the IC50 is reported as 500 nM.

For `O=C(O)c1ccc(CN2CCc3ccc(S(=O)(=O)Nc4cccc(Cl)c4)cc3C2)cc1` [Example 3, 4-[[7-(3-Chlorophenylsulphamoyl)-1,2,3,4-tetrahydroisoquinolin-2-yl]methyl]benzoic acid], the IC50 was 4000 nM.

Work on `COC(=O)c1ccc(CN2CCc3ccc(S(=O)(=O)Nc4cccc(Cl)c4)cc3C2)o1` [Example 4, methyl-5-[[7-(3-chlorophenylsulphamoyl)-1,2,3,4-tetrahydroisoquinolin-2-yl]methyl]-2-furoate] yielded an IC50 of 5000 nM.

With `O=C(O)c1ccc(CN2CCc3ccc(S(=O)(=O)Nc4cccc(Cl)c4)cc3C2)o1` [Example 5, 5-[[7-(3-chlorophenylsulphamoyl)-1,2,3,4-tetrahydroisoquinolin-2-yl]methyl]-2-furoic acid] the IC50 was 760 nM.
